Laboratory results taken from patent publication US20120129870A1, “PIPERAZINYL DERIVATIVES USEFUL AS MODULATORS OF THE NEUROPEPTIDE Y2 RECEPTOR” (priority 2007, published 2012).

target: T1, NPY Y2 receptor (Homo sapiens, UniProt P49146); experiment: Neuropeptide Y2 radioligand binding assay ([125I]PYY, KAN-Ts membranes); parameters: endogenous in cells; host or cells: KAN-Ts cells (membrane preparation); conditions: KAN-Ts membranes endogenously expressing Y2, [125I]PYY (80 pM), 1 h at rt
T1 sequence (P49146 1-381): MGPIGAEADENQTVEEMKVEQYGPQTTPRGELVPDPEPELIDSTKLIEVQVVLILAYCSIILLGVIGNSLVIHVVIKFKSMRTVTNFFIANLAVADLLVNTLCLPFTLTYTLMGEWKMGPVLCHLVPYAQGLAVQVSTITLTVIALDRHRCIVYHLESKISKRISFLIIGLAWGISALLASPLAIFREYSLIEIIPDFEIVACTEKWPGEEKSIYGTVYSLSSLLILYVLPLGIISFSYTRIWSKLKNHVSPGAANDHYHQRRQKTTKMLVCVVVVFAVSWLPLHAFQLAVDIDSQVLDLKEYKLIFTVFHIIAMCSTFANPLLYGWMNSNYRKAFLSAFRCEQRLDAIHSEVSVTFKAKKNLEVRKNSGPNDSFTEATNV
Method: KAN-Ts endogenously expressing Y2 receptors were used for the radioligand binding assay. Cells were grown to confluence on 150 cm^2 tissue culture plates, washed with phosphate-buffered saline (PBS), and scraped into 50 mL tubes. After centrifugation, the supernatant was aspirated, and the pellets frozen and stored at −80° C. Thawed pellets were homogenized with a polytron tissue grinder for 15 sec in 20 mM Tris-HCl, 5 mM EDTA. The homogenate was centrifuged at 800×g for 5 min and the collected supernatant was recentrifuged at 25000×g for 25 min. The resulting pellet was resuspended in binding buffer (20 mM HEPES, 120 mM NaCl, 0.22 mM KH2PO4, 1.3 mM CaCl2, 0.8 mM MgSO4). Membranes were incubated with [^125I]PYY (80 pM) in the presence or absence of test compound for 1 h at rt. The reaction was stopped by filtration through GF/C filter plates pre-soaked in 0.3% polyethylenimine and subsequently washed with Tris 50 mM, 5 mM EDTA buffer. Plates were dried for 1 h in a 55° C. oven, scintillation fluid was added and the radioactivity was counted in a Packard TopCount. Specific binding to the NPY receptor subtypes was determined by radioactivity that was bound in the presence of […]. Each binding experiment was repeated three to eight times, each in duplicate. IC50 values (i.e. concentration of unlabelled peptide or antagonist required to compete for 50% of specific binding to the radioligand) were calculated using the GraphPad Prism software (GraphPad Software Inc., San Diego Calif.) with a fit to a sigmoidal dose response curve. Apparent K, values were calculated as Ki=IC50/(1+C/KD), where C is concentration of the radioligand.

Compound | IC50 [nM]
CCC(CC)C(=O)Nc1ccc(N2CCN(C(c3ccccc3)C3CCC3)CC2)c(F)c1 (stereo not drawn) [Compound 78, N-{4-[4-(Cyclobutyl-phenyl-methyl)-piperazin-1-yl]-3-fluoro-phenyl}-2-ethyl-butyramide] | 53
CCC(CC)C(=O)Nc1ccc(N2CCN(C(c3ccccc3)c3noc(C(F)(F)F)n3)CC2)c(F)c1 (stereo not drawn) [Compound 234, 2-Ethyl-N-(3-fluoro-4-{4-[phenyl-(5-trifluoromethyl-[1,2,4]-oxadiazol-3-yl)-methyl]-piperazin-1-yl}-phenyl)-butyramide] | 120
CCC(CC)C(=O)Nc1ccc(N2CCN(C(c3ccccn3)c3ncco3)CC2)c(F)c1 (stereo not drawn) [Compound 156, 2-Ethyl-N-{3-fluoro-4-[4-(oxazol-2-yl-pyridin-2-yl-methyl)-piperazin-1-yl]-phenyl}-butyramide] | 790
CCC(CC)C(=O)Nc1ccc(N2CCN(C(c3ccccn3)c3ncco3)CC2)c(C#N)c1 (stereo not drawn) [Compound 155, N-{3-Cyano-4-[4-(oxazol-2-yl-pyridin-2-yl-methyl)-piperazin-1-yl]-phenyl}-2-ethyl-butyramide] | 150
CCC(CC)C(=O)Nc1ccc(N2CCN(C(c3ccccn3)c3ccccn3)CC2)c(F)c1 [Compound 55, N-{4-[4-(Di-pyridin-2-yl-methyl)-piperazin-1-yl]-3-fluoro-phenyl}-2-ethyl-butyramide] | 54
CCC(CC)C(=O)Nc1ccc(N2CCN(C(C#N)c3ccccc3OC)CC2)c(F)c1 (stereo not drawn) [Compound 137, N-(4-{4-[Cyano-(2-methoxy-phenyl)-methyl]-piperazin-1-yl}-3-fluoro-phenyl)-2-ethyl-butyramide] | 1200
CCC(CC)C(=O)Nc1ccc(N2CCN(C(c3ccc(OC)cc3)c3ncco3)CC2)c(F)c1 (stereo not drawn) [Compound 140, 2-Ethyl-N-(3-fluoro-4-{4-[(4-methoxy-phenyl)-oxazol-2-yl-methyl]-piperazin-1-yl}-phenyl)-butyramide] | 320
CCC(CC)C(=O)Nc1ccc(N2CCN(C(C#N)c3ccccc3C#N)CC2)c(F)c1 (stereo not drawn) [Compound 136, N-(4-{4-[Cyano-(2-cyano-phenyl)-methyl]-piperazin-1-yl}-3-fluoro-phenyl)-2-ethyl-butyramide] | 9800
CCC(CC)C(=O)Nc1ccc(N2CCN(C(c3ccccc3)c3ccc(Cl)cc3)CC2)c(F)c1 (stereo not drawn) [Compound 13, N-(4-{4-[(4-Chloro-phenyl)-phenyl-methyl]-piperazin-1-yl}-3-fluoro-phenyl)-2-ethyl-butyramide] | 450
CCC(CC)C(=O)Nc1ccc(N2CCN(C(c3ccc(OC(F)(F)F)cc3)c3noc(C)n3)CC2)c(F)c1 (stereo not drawn) [Compound 281] | 65
CCC(CC)C(=O)Nc1ccc(N2CCN(C(c3ccc(Cl)cc3)C3CC3)CC2)c(F)c1 (stereo not drawn) [Compound 102, N-(4-{4-[(4-Chloro-phenyl)-cyclopropyl-methyl]-piperazin-1-yl}-3-fluoro-phenyl)-2-ethyl-butyramide] | 720
CCC(CC)C(=O)Nc1ccc(N2CCN(C(c3ncco3)C3CC3)CC2)c(F)c1 (stereo not drawn) [Compound 66, N-{4-[4-(Cyclopropyl-oxazol-2-yl-methyl)-piperazin-1-yl]-3-fluoro-phenyl}-2-ethyl-butyramide] | 1500

The next lines start with the values.

IC50 [nM] | Compound
5 | CCC(CC)C(=O)Nc1ccc(N2CCN(C(c3ccccc3)c3ncco3)CC2)c(C#N)c1 (stereo not drawn) [Compound 86, N-{3-Cyano-4-[4-(oxazol-2-yl-phenyl-methyl)-piperazin-1-yl]-phenyl}-2-ethyl-butyramide]
> 10000 | Cn1ccnc1Nc1ccc(N2CCN(C(c3ccccc3)c3ncco3)CC2)c(F)c1 (stereo not drawn) [Compound 58, {3-Fluoro-4-[4-(oxazol-2-yl-phenyl-methyl)-piperazin-1-yl]-phenyl}-(1-methyl-1H-imidazol-2-yl)-amine]
180 | CCCC(=O)Nc1ccc(N2CCN(C(c3ccccc3)c3ncco3)CC2)c(C#N)c1 (stereo not drawn) [Compound 98, N-{3-Cyano-4-[4-(oxazol-2-yl-phenyl-methyl)-piperazin-1-yl]-phenyl}-butyramide]
430 | N#Cc1cc(NC(=O)C2CCCCC2)ccc1N1CCN(C(c2ccccc2)c2ncco2)CC1 (stereo not drawn) [Compound 112, Cyclohexanecarboxylic acid {3-cyano-4-[4-(oxazol-2-yl-phenyl-methyl)-piperazin-1-yl]-phenyl}-amide]
3600 | N#Cc1cc(NC(=O)C2CCC(F)(F)CC2)ccc1N1CCN(C(c2ccccc2)c2ncco2)CC1 (stereo not drawn) [Compound 109, 4,4-Difluoro-cyclohexanecarboxylic acid {3-cyano-4-[4-(oxazol-2-yl-phenyl-methyl)-piperazin-1-yl]-phenyl}-amide]
150 | Cc1ccccc1C(=O)Nc1ccc(N2CCN(C(c3ccccc3)c3ncco3)CC2)c(C#N)c1 (stereo not drawn) [Compound 96, N-{3-Cyano-4-[4-(oxazol-2-yl-phenyl-methyl)-piperazin-1-yl]-phenyl}-2-methyl-benzamide]
270 | O=C(Nc1ccc(N2CCN(C(c3ccccc3)c3ncco3)CC2)c(F)c1)[C@@H]1CCOC1 (stereo in doubt) [Compound 92, Tetrahydro-furan-3-carboxylic acid {3-fluoro-4-[4-(oxazol-2-yl-phenyl-methyl)-piperazin-1-yl]-phenyl}-amide]
100 | N#Cc1cc(NC(=O)C2CCC2)ccc1N1CCN(C(c2ccccc2)c2ncco2)CC1 (stereo not drawn) [Compound 95, Cyclobutanecarboxylic acid {3-cyano-4-[4-(oxazol-2-yl-phenyl-methyl)-piperazin-1-yl]-phenyl}-amide]
170 | N#Cc1cc(NC(=O)C2CC2)ccc1N1CCN(C(c2ccccc2)c2ncco2)CC1 (stereo not drawn) [Compound 101, Cyclopropanecarboxylic acid {3-cyano-4-[4-(oxazol-2-yl-phenyl-methyl)-piperazin-1-yl]-phenyl}-amide]
2600 | Cc1cc(NC(=O)C(C)C)ccc1N1CCN(C(c2ccccc2)c2ncco2)CC1 (stereo not drawn) [Compound 74, N-{3-Methyl-4-[4-(oxazol-2-yl-phenyl-methyl)-piperazin-1-yl]-phenyl}-isobutyramide]
710 | Cc1ccccc1Nc1ccc(N2CCN(C(c3ccccc3)c3ncco3)CC2)c(F)c1 (stereo not drawn) [Compound 63, {3-Fluoro-4-[4-(oxazol-2-yl-phenyl-methyl)-piperazin-1-yl]-phenyl}-o-tolyl-amine]
80 | O=C(Nc1ccc(N2CCN(C(c3ccccc3)c3ccccc3)CC2)c(F)c1)[C@H]1CCOC1 (stereo in doubt) [Compound 14, Tetrahydro-furan-3-carboxylic acid [4-(4-benzhydryl-piperazin-1-yl)-3-fluoro-phenyl]-amide]
> 10000 | O=C(NCc1ccc(N2CCN(C(c3ccccc3)c3ncco3)CC2)c(F)c1)C1CC1 (stereo not drawn) [Compound 171, Cyclopropanecarboxylic acid 3-fluoro-4-[4-(oxazol-2-yl-phenyl-methyl)-piperazin-1-yl]-benzylamide]
> 10000 | O=C(NC1CCCC1)c1ccc(N2CCN(C(c3ccccc3)c3ncco3)CC2)c(F)c1 (stereo not drawn) [Compound 49, N-Cyclopentyl-3-fluoro-4-[4-(oxazol-2-yl-phenyl-methyl)-piperazin-1-yl]-benzamide]

same assay, conditions: apparent Ki=IC50/(1+C/KD)

Ki [nM] | Compound
34 | N#Cc1cc(NC(=O)C2CC2)ccc1N1CCN(C(c2ccccc2)c2ccncc2)CC1 (stereo not drawn) [Compound 322, Cyclopropanecarboxylic acid {3-cyano-4-[4-(phenyl-pyridin-4-yl-methyl)-piperazin-1-yl]-phenyl}-amide]
63 | CCC(CC)C(=O)Nc1ccc(N2CCN(C(c3ccccc3)c3ccc(Cl)cc3)CC2)c(C#N)c1 (stereo not drawn) [Compound 311, N-(4-{4-[(4-Chloro-phenyl)-phenyl-methyl]-piperazin-1-yl}-3-cyano-phenyl)-2-ethyl-butyramide]
140 | Cc1ccccc1C(c1ccccc1)N1CCN(c2ccc(NC(=O)c3c(C)noc3C)cc2C#N)CC1 (stereo not drawn) [Compound 301, N-(3-Cyano-4-{4-[(2-methylphenyl)(phenyl)methyl]piperazin-1-yl}phenyl)-3,5-dimethylisoxazole-4-carboxamide]
740 | Cc1noc(C)c1C(=O)Nc1ccc(N2CCN(C(c3ccc(F)cc3)c3ccc(F)cc3)CC2)c(C#N)c1 [Compound 309, 3,5-Dimethyl-isoxazole-4-carboxylic acid (4-{4-[bis-(4-fluoro-phenyl)methyl]-piperazin-1-yl}-3-cyano-phenyl)-amide]
